Measurements: the NIST ThermoML archive (doi:10.1016/j.tca.2013.05.023)
± gives the expanded uncertainty stated by the source.

How the values were obtained:
[1] = xn = mol fraction of the nth substance listed; settings: 101 kPa, Liquid, Alternating current cell with electrodes, x1 = 0.3333
[2] = molar heat capacity at constant pressure; xn = mol fraction of the nth substance listed; settings: 101 kPa, Liquid, Small sample (50 mg) DSC, x1 = 0.3333

Structure (SMILES) | electrical conductivity ([1]; 298.15 K) [S/m] | electrical conductivity ([1]; 303.15 K) [S/m] | electrical conductivity ([1]; 308.15 K) [S/m] | electrical conductivity ([1]; 313.15 K) [S/m] | electrical conductivity ([1]; 318.15 K) [S/m] | electrical conductivity ([1]; 323.15 K) [S/m] | electrical conductivity ([1]; 328.15 K) [S/m] | electrical conductivity ([1]; 333.15 K) [S/m] | electrical conductivity ([1]; 338.15 K) [S/m] | electrical conductivity ([1]; 343.15 K) [S/m] | molar heat capacity at constant pressure ([2]; 303.15 K) [J/K/mol] | molar heat capacity at constant pressure ([2]; 308.15 K) [J/K/mol] | molar heat capacity at constant pressure ([2]; 313.15 K) [J/K/mol] | molar heat capacity at constant pressure ([2]; 318.15 K) [J/K/mol] | molar heat capacity at constant pressure ([2]; 323.15 K) [J/K/mol] | molar heat capacity at constant pressure ([2]; 328.15 K) [J/K/mol] | molar heat capacity at constant pressure ([2]; 333.15 K) [J/K/mol] | molar heat capacity at constant pressure ([2]; 338.15 K) [J/K/mol] | molar heat capacity at constant pressure ([2]; 343.15 K) [J/K/mol] | molar heat capacity at constant pressure ([2]; 348.15 K) [J/K/mol] | also measured
CCN(CC)CCO.Cl [2-(diethylamino)ethanol hydrochloride] + OCC(O)CO | 0.069 ± 0.001 | 0.098 ± 0.002 | 0.134 ± 0.003 | 0.175 ± 0.004 | 0.228 ± 0.005 | 0.293 ± 0.006 | 0.368 ± 0.007 | 0.456 ± 0.009 | 0.556 ± 0.011 | 0.667 ± 0.013 | 83.46 ± 3.5 | 83.96 ± 3.6 | 84.39 ± 3.6 | 85.16 ± 3.6 | 85.72 ± 3.6 | 86.36 ± 3.7 | 86.96 ± 3.7 | 87.79 ± 3.7 | 88.46 ± 3.8 | 89.09 ± 3.8 | molar heat capacity at constant pressure ([2]; 353.15 K): 89.76 ± 3.8 J/K/mol
CCN(CC)CCO.Cl [2-(diethylamino)ethanol hydrochloride] + OCCO | 0.47 ± 0.009 | 0.565 ± 0.011 | 0.68 ± 0.014 | 0.81 ± 0.016 | 0.96 ± 0.019 | 1.12 ± 0.02 | 1.29 ± 0.03 | 1.48 ± 0.03 | 1.68 ± 0.03 | 1.88 ± 0.04 | 68.03 ± 2.9 | 68.43 ± 2.9 | 68.83 ± 2.9 | 69.33 ± 2.9 | 69.83 ± 3 | 70.36 ± 3 | 71.03 ± 3 | 71.53 ± 3 | 72.09 ± 3.1 | 72.69 ± 3.1 | molar heat capacity at constant pressure ([2]; 353.15 K): 73.26 ± 3.1 J/K/mol
